By GI50 is commonly meant the concentration that inhibits growth by half. For orientation: TGI means the concentration giving total growth inhibition. Low values mean greater sensitivity of the cells, high ones lower sensitivity of the cells.

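Cells were grown in 96-well plates and exposed to each compound for 48 hours at five concentrations; endpoints were interpolated linearly between bracketing concentrations, or set to the highest concentration if not reached. Abbreviation: GI50, concentration required for 50% inhibition of growth. TGI denotes the concentration required for complete inhibition of growth.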 Where only a bound is given, the exact number is not on record here.

GI50 and TGI data for 14 molecules are collected here from PubChem BioAssay (NCI).

Among the test systems are OVCAR-5 ovarian; MDA-MB-231 breast; SF-295 CNS; SK-MEL-2 melanoma; NCI-H522 lung; SK-MEL-28 melanoma; ACHN renal; SNB-75 CNS; A549 NSCLC; SR leukemia.
What all share (test): DTP human tumour cell line panel, 48 h

Take `c1cc(OCCCCCOc2cccc(-c3nc4ccccc4[nH]3)c2)cc(-c2nc3ccccc3[nH]2)c1`: the GI50 in the experiment with OVCAR-5 ovarian was 2.76 µM; with MDA-MB-231 breast, 4.08 µM; in the experiment with SF-295 CNS, 1.65 µM; with SK-MEL-2 melanoma it was 2.05 µM; with NCI-H522 lung, 2.48 µM; in the experiment on SK-MEL-28 melanoma, 2.82 µM. Besides, the GI50 is 2.35 µM with ACHN renal and 3.4 µM in the experiment on SNB-75 CNS. Further, the TGI in the experiment with OVCAR-5 ovarian is more than 100 µM; in the experiment on MDA-MB-231 breast, 30.9 µM; with SF-295 CNS it was 6.57 µM; in the experiment on SK-MEL-2 melanoma it was 5.67 µM; in the experiment on NCI-H522 lung it was more than 100 µM; in the experiment on SK-MEL-28 melanoma it was more than 100 µM. Besides, the TGI in the experiment on ACHN renal is 46.2 µM; with SNB-75 CNS it was more than 100 µM.
For `Cc1cccc(Oc2ccc(Nc3ncnc4ccc(NC(=O)CN(C)C)cc34)cc2Cl)c1`, the GI50 is 2.98 µM in the experiment on OVCAR-5 ovarian; 1.72 µM with MDA-MB-231 breast; 1.66 µM in the experiment on SF-295 CNS; 1.84 µM with SK-MEL-2 melanoma; 0.244 µM in the experiment with NCI-H522 lung; 1.85 µM in the experiment with SK-MEL-28 melanoma. Further, the GI50 with ACHN renal was 0.804 µM; in the experiment with A549 NSCLC, 1.91 µM; in the experiment with SNB-75 CNS it was 2.01 µM. The TGI with OVCAR-5 ovarian is 12.9 µM; in the experiment on MDA-MB-231 breast, 3.57 µM; with SF-295 CNS, 3.2 µM; in the experiment with SK-MEL-2 melanoma, 3.63 µM; in the experiment with NCI-H522 lung it was 1.98 µM; in the experiment with SK-MEL-28 melanoma it was 3.48 µM. Besides, the results for the TGI in the experiment with ACHN renal, with A549 NSCLC and in the experiment on SNB-75 CNS were 4 µM, 10.1 µM and 5.05 µM, respectively.
In the case of `COc1ccc(-c2c(Nc3ccccn3)nc3c(C4=CCCCC4)c(-c4ccccc4)[nH]n3c2=O)cc1`, the GI50 in the experiment with OVCAR-5 ovarian was 5.52 µM; in the experiment with MDA-MB-231 breast, 2.73 µM; in the experiment on SF-295 CNS it was 2.48 µM; with SK-MEL-2 melanoma, 2.21 µM; in the experiment on NCI-H522 lung, 3.55 µM; with SK-MEL-28 melanoma, 4.55 µM. The GI50 in the experiment on ACHN renal was 2 µM; in the experiment with A549 NSCLC it was 1.94 µM; in the experiment with SNB-75 CNS, 2.99 µM. For the same molecule, the TGI was more than 100 µM in the experiment with OVCAR-5 ovarian; 16.5 µM with MDA-MB-231 breast; 14 µM with SF-295 CNS; 9.54 µM in the experiment with SK-MEL-2 melanoma; 23.9 µM in the experiment on NCI-H522 lung; more than 100 µM in the experiment with SK-MEL-28 melanoma. Besides, the TGI with ACHN renal is 24.9 µM; in the experiment with A549 NSCLC, more than 100 µM; with SNB-75 CNS, 21.6 µM.
Take `COc1cc(NC(=O)COc2ccccc2)c(C(N)=O)cc1OC`: the GI50 is 15 µM in the experiment on OVCAR-5 ovarian; 2.39 µM in the experiment with MDA-MB-231 breast; 0.93 µM in the experiment on SF-295 CNS; 0.41 µM in the experiment on NCI-H522 lung; 24.2 µM in the experiment on SK-MEL-28 melanoma; 8.12 µM with ACHN renal. Further, the GI50 in the experiment on SR leukemia was 0.515 µM; in the experiment on A549 NSCLC, 0.917 µM; with SNB-75 CNS it was 0.547 µM. Moreover, the TGI is more than 100 µM in the experiment with OVCAR-5 ovarian; 42.4 µM in the experiment with MDA-MB-231 breast; 16.6 µM in the experiment on SF-295 CNS; 7.06 µM with NCI-H522 lung; more than 100 µM in the experiment with SK-MEL-28 melanoma; more than 100 µM in the experiment on ACHN renal. Also, the TGI was more than 100 µM in the experiment on SR leukemia, more than 100 µM in the experiment with A549 NSCLC and 11.9 µM in the experiment on SNB-75 CNS.
Turning to `CC1(C)CC2=NO[Se]3=C2C(=NO3)C1`, the TGI in the experiment on OVCAR-5 ovarian was found to be 20.5 µM; in the experiment on MDA-MB-231 breast it was 16.4 µM; in the experiment on SF-295 CNS, 7.6 µM; in the experiment on SK-MEL-2 melanoma, 24.8 µM; in the experiment on NCI-H522 lung, 5.46 µM; in the experiment with SK-MEL-28 melanoma, 16.6 µM. Further, the values for the TGI in the experiment on ACHN renal, in the experiment with A549 NSCLC and in the experiment on SNB-75 CNS were 3.61 µM, 14.2 µM and 6.96 µM, respectively.
For the molecule `O=C1NC(=O)N(S(=O)(=O)c2cc(C(=O)Nc3ccc(Cl)cc3)c(Cl)cc2S)S(=O)(=O)N1`, the GI50 in the experiment with OVCAR-5 ovarian was 19.4 µM; in the experiment with MDA-MB-231 breast it was 25.2 µM; with SF-295 CNS it was 23.4 µM; in the experiment on SK-MEL-2 melanoma, 27.7 µM; with NCI-H522 lung, 21.1 µM; with SK-MEL-28 melanoma, 14.6 µM. Besides, the GI50 in the experiment on ACHN renal was 21.6 µM; in the experiment on A549 NSCLC it was 25.1 µM; with SNB-75 CNS, 38.9 µM. The total growth inhibition concentration (TGI) was 35.3 µM in the experiment with OVCAR-5 ovarian; 74.5 µM with MDA-MB-231 breast; 43.1 µM in the experiment on SF-295 CNS; 66.1 µM with SK-MEL-2 melanoma; 50.6 µM in the experiment with NCI-H522 lung; more than 100 µM in the experiment on SK-MEL-28 melanoma. The results for the TGI in the experiment on ACHN renal, in the experiment with A549 NSCLC and in the experiment on SNB-75 CNS were 43.7 µM, 55.6 µM and more than 100 µM, respectively.
In the case of `CCN1CCN(CC(=O)Nc2nc3ccc(NCc4ccc(Br)cc4)cc3s2)CC1`, the GI50 is 1.89 µM in the experiment on MDA-MB-231 breast; 1.95 µM with SK-MEL-2 melanoma; 1.92 µM in the experiment on SK-MEL-28 melanoma; 2.03 µM with ACHN renal; 2.42 µM in the experiment on SR leukemia; 1.59 µM in the experiment on SNB-75 CNS. For the same molecule, the TGI in the experiment on MDA-MB-231 breast is 4.15 µM; in the experiment on SK-MEL-2 melanoma, 3.63 µM; in the experiment on SK-MEL-28 melanoma it was 3.76 µM; in the experiment on ACHN renal it was 4.4 µM; in the experiment on SR leukemia, more than 100 µM; in the experiment with SNB-75 CNS it was 3.29 µM.
Turning to `CN(C)CCCC1(c2ccc(F)cc2)OCc2cc(-c3csc4ccccc34)ccc21` (stereo unspecified), the GI50 is 1.55 µM with OVCAR-5 ovarian; 1.34 µM in the experiment with MDA-MB-231 breast; 1.64 µM in the experiment with SF-295 CNS; 1.83 µM with SK-MEL-2 melanoma; 1.65 µM in the experiment with NCI-H522 lung; 1.68 µM in the experiment with SK-MEL-28 melanoma. Moreover, the GI50 in the experiment on ACHN renal is 1.64 µM; in the experiment with A549 NSCLC, 1.82 µM; in the experiment on SNB-75 CNS, 1.35 µM. The TGI with OVCAR-5 ovarian amounted to 2.95 µM; with MDA-MB-231 breast, 2.68 µM; in the experiment with SF-295 CNS it was 3.04 µM; in the experiment on SK-MEL-2 melanoma it was 3.58 µM; with NCI-H522 lung it was 3.48 µM; in the experiment on SK-MEL-28 melanoma it was 3.07 µM. Moreover, the TGI in the experiment on ACHN renal was determined as 3 µM; in the experiment with A549 NSCLC, 3.66 µM; in the experiment with SNB-75 CNS, 2.8 µM.
On to `COc1cc2c(Oc3ccc(-c4cnc(Nc5ccc(F)cc5)n(C)c4=O)cc3F)ccnc2cc1OCCCN1CCOCC1`, for which the GI50 in the experiment on OVCAR-5 ovarian is 1.04 µM; with MDA-MB-231 breast, 1.4 µM; with SF-295 CNS it was 0.663 µM; in the experiment on SK-MEL-2 melanoma, 1.53 µM; in the experiment on SK-MEL-28 melanoma, 0.97 µM; in the experiment with ACHN renal it was 0.864 µM. The GI50 with A549 NSCLC was 1.66 µM; with SNB-75 CNS, 0.61 µM. In addition, the TGI in the experiment with OVCAR-5 ovarian stood at 2.45 µM; in the experiment with MDA-MB-231 breast it was 2.93 µM; in the experiment with SF-295 CNS it was 1.99 µM; with SK-MEL-2 melanoma, 3.19 µM; with SK-MEL-28 melanoma, 2.28 µM; with ACHN renal, 2.15 µM. The values for the TGI in the experiment on A549 NSCLC and in the experiment with SNB-75 CNS were 3.42 µM and 1.91 µM, respectively.
Regarding `CN(C)c1ccc(/C=C2\CCc3ccccc3C2=O)cc1Br`, the TGI in the experiment with OVCAR-5 ovarian, with SF-295 CNS, in the experiment with SK-MEL-2 melanoma, in the experiment with NCI-H522 lung, with SK-MEL-28 melanoma and in the experiment on ACHN renal was more than 100 µM in each case. Also, the concentration for total growth inhibition (TGI) in the experiment with SR leukemia, with A549 NSCLC and with SNB-75 CNS was more than 100 µM each time.
For the molecule `Cc1ccccc1NC(=O)C1C(=O)N(c2ccccc2C)C(=O)/C1=N\NC(N)=O` (stereo unspecified), the TGI with OVCAR-5 ovarian, with SF-295 CNS, in the experiment with SK-MEL-2 melanoma, in the experiment on NCI-H522 lung, with SK-MEL-28 melanoma and with ACHN renal was more than 100 µM throughout. Moreover, the results for the TGI in the experiment with SR leukemia, in the experiment on A549 NSCLC and in the experiment on SNB-75 CNS were more than 100 µM, more than 100 µM and 83.7 µM, respectively.
As to `OC[C@H]1C[C@](O)(c2ccc(F)cc2)[C@@H](c2ccc(F)cc2)O1`, the GI50 in the experiment with OVCAR-5 ovarian, with MDA-MB-231 breast, in the experiment with SF-295 CNS, with NCI-H522 lung, with SK-MEL-28 melanoma and in the experiment on ACHN renal was more than 100 µM each time. For the same molecule, the GI50 with SR leukemia, in the experiment on A549 NSCLC and in the experiment with SNB-75 CNS was more than 100 µM each time. Further, the TGI in the experiment on OVCAR-5 ovarian, in the experiment with MDA-MB-231 breast, with SF-295 CNS, in the experiment on NCI-H522 lung, in the experiment with SK-MEL-28 melanoma and in the experiment on ACHN renal was more than 100 µM each time. In addition, the TGI in the experiment on SR leukemia, in the experiment with A549 NSCLC and with SNB-75 CNS was more than 100 µM each time.
With `Oc1c(Br)cc(Cl)cc1C(c1cc(Cl)cc(Br)c1O)C(Cl)(Cl)Cl`, the GI50 in the experiment on OVCAR-5 ovarian is 3.58 µM; in the experiment on MDA-MB-231 breast, 1.97 µM; with SF-295 CNS, 1.59 µM; in the experiment with SK-MEL-2 melanoma, 2.31 µM; in the experiment on NCI-H522 lung, 1.86 µM; in the experiment with SK-MEL-28 melanoma it was 3.7 µM. Also, the GI50 is 3.06 µM in the experiment with ACHN renal, 3.13 µM in the experiment on A549 NSCLC and 2.64 µM in the experiment with SNB-75 CNS. Besides, the TGI with OVCAR-5 ovarian was found to be 13 µM; with MDA-MB-231 breast, 5.98 µM; in the experiment on SF-295 CNS, 5.29 µM; in the experiment with SK-MEL-2 melanoma, 5.08 µM; in the experiment with NCI-H522 lung it was 6.07 µM; with SK-MEL-28 melanoma, 14.9 µM. Besides, the TGI in the experiment with ACHN renal stood at 9.81 µM; with A549 NSCLC, 11.7 µM; with SNB-75 CNS, 12.3 µM.
`O=c1c2cc(Br)ccc2nc(CNc2ccccc2)n1-c1ccccc1`: the total growth inhibition concentration (TGI) in the experiment with OVCAR-5 ovarian is more than 100 µM; in the experiment on SF-295 CNS it was more than 58 µM; in the experiment on SK-MEL-2 melanoma it was 62.3 µM; in the experiment on NCI-H522 lung, 19.9 µM; in the experiment on SK-MEL-28 melanoma, more than 65.6 µM; in the experiment with ACHN renal, more than 49.9 µM. For the same molecule, the values for the TGI with SR leukemia, in the experiment on A549 NSCLC and in the experiment on SNB-75 CNS were more than 30.4 µM, more than 62.7 µM and more than 59.5 µM, respectively.
